# Measurements as given in article PMC5218480 (PLoS ONE, 2017).
# Tested on: MV-4-11 cells
# Test: Gene expression microarray analysis (Affymetrix PrimeView) and GSEA
# Format: cell-based, human
# Set-up: RFU PODN (11730768_x_at) / Fold change /veh PODN (11730768_x_at) / RFU LINC00158 (11744669_a_at) / Fold change /veh LINC00158 (11744669_a_at) / RFU DUSP10 (11751237_a_at) / Fold change /veh DUSP10 (11751237_a_at) / RFU ID3 (11757404_x_at) / Fold change /veh ID3 (11757404_x_at) / RFU PLEKHG5 (11737974_s_at) / Fold change /veh PLEKHG5 (11737974_s_at) / RFU LRRC4B (11730491_at) / Fold change /veh LRRC4B (11730491_at) / RFU GIMAP4 (11747438_a_at) / Fold change /veh GIMAP4 (11747438_a_at) / RFU KRT8 (11758183_x_at) / Fold change /veh KRT8 (11758183_x_at) / RFU CNN1 (11734310_a_at) / Fold change /veh CNN1 (11734310_a_at) / RFU VPS37D (11726825_at) / Fold change /veh VPS37D (11726825_at) / RFU C10orf10 (11716522_x_at) / Fold change /veh C10orf10 (11716522_x_at) / RFU KIR2DL2 /// KIR2DL4 /// KIR2DL5A /// KIR2DL5B /// KIR2DS1 /// KIR2DS2 /// KIR2DS3 /// KIR2DS4 /// KIR3DL3 /// KIR3DL3 /// KIR3DS1 (11738374_at) / Fold change /veh KIR2DL2 /// KIR2DL4 /// KIR2DL5A /// KIR2DL5B /// KIR2DS1 /// KIR2DS2 /// KIR2DS3 /// KIR2DS4 /// KIR3DL3 /// KIR3DL3 /// KIR3DS1 (11738374_at) / RFU C1QL1 (11718748_at) / Fold change /veh C1QL1 (11718748_at) / RFU TMPRSS4 (11747572_a_at) / Fold change /veh TMPRSS4 (11747572_a_at) / RFU HAMP (11756126_x_at) / Fold change /veh HAMP (11756126_x_at) / RFU RNFT2 (11725882_a_at) / Fold change /veh RNFT2 (11725882_a_at) / RFU NR4A2 (11747474_a_at) / Fold change /veh NR4A2 (11747474_a_at) / RFU ABCC12 (11746883_a_at) / Fold change /veh ABCC12 (11746883_a_at) / RFU TMEM136 (11760407_x_at) / Fold change /veh TMEM136 (11760407_x_at) / RFU CLDN22 /// WWC2 (11732394_at) / Fold change /veh CLDN22 /// WWC2 (11732394_at) / RFU HLA-DPB1 (11760878_x_at) / Fold change /veh HLA-DPB1 (11760878_x_at) / RFU SPINT1 (11716480_a_at) / Fold change /veh SPINT1 (11716480_a_at) / RFU GAP43 (11754022_s_at) / Fold change /veh GAP43 (11754022_s_at) / RFU A4GNT (11735810_at) / Fold change /veh A4GNT (11735810_at) / RFU PRB3 (11715151_x_at) / Fold change /veh PRB3 (11715151_x_at) / RFU TUBB4B (11761932_at) / Fold change /veh TUBB4B (11761932_at) / RFU CAPN14 (11732068_a_at) / Fold change /veh CAPN14 (11732068_a_at) / RFU TMCC2 (11721928_a_at) / Fold change /veh TMCC2 (11721928_a_at) / RFU IRGQ (11745062_a_at) / Fold change /veh IRGQ (11745062_a_at) / RFU FAM174B (11720279_a_at) / Fold change /veh FAM174B (11720279_a_at) / RFU TMPRSS4 (11748680_a_at) / Fold change /veh TMPRSS4 (11748680_a_at) / RFU FAM212B (11763350_a_at) / Fold change /veh FAM212B (11763350_a_at) / RFU PLEKHG5 (11743358_a_at) / Fold change /veh PLEKHG5 (11743358_a_at) / RFU ZSCAN30 (11745921_a_at) / Fold change /veh ZSCAN30 (11745921_a_at) / RFU CMKLR1 (11741424_a_at) / Fold change /veh CMKLR1 (11741424_a_at) / RFU LOC101060620 /// MAPK8IP1 (11723275_at) / Fold change /veh LOC101060620 /// MAPK8IP1 (11723275_at) / RFU SPTSSB (11747773_x_at) / Fold change /veh SPTSSB (11747773_x_at) / RFU PRSS12 (11739890_at) / Fold change /veh PRSS12 (11739890_at) / RFU BIN1 (11741810_x_at) / Fold change /veh BIN1 (11741810_x_at) / RFU WNT11 (11732464_a_at) / Fold change /veh WNT11 (11732464_a_at) / RFU C10orf10 (11716521_a_at) / Fold change /veh C10orf10 (11716521_a_at) / RFU C5orf56 (11738089_at) / Fold change /veh C5orf56 (11738089_at) / RFU CYB561 (11721691_x_at) / Fold change /veh CYB561 (11721691_x_at) / RFU ANKRD19P (11752326_a_at) / Fold change /veh ANKRD19P (11752326_a_at) / RFU OR2T12 /// OR2T33 /// OR2T8 (11738714_s_at) / Fold change /veh OR2T12 /// OR2T33 /// OR2T8 (11738714_s_at) / RFU VCAN (11748164_a_at) / Fold change /veh VCAN (11748164_a_at) / RFU JSRP1 (11732532_at) / Fold change /veh JSRP1 (11732532_at) / RFU KRTAP10-11 (11738290_x_at) / Fold change /veh KRTAP10-11 (11738290_x_at) / RFU MYO3A (11730013_a_at) / Fold change /veh MYO3A (11730013_a_at) / RFU EBF3 (11725865_a_at) / Fold change /veh EBF3 (11725865_a_at) / RFU CAMK2N1 (11719241_x_at) / Fold change /veh CAMK2N1 (11719241_x_at) / RFU C5orf56 (11738088_a_at) / Fold change /veh C5orf56 (11738088_a_at) / RFU OLFML3 (11715873_a_at) / Fold change /veh OLFML3 (11715873_a_at) / RFU LOC100653217 /// NTM (11731650_a_at) / Fold change /veh LOC100653217 /// NTM (11731650_a_at) / RFU MAPK11 (11762145_a_at) / Fold change /veh MAPK11 (11762145_a_at) / RFU FIZ1 (11724087_x_at) / Fold change /veh FIZ1 (11724087_x_at) / RFU OASL (11726364_x_at) / Fold change /veh OASL (11726364_x_at) / RFU SOX15 (11748057_x_at) / Fold change /veh SOX15 (11748057_x_at) / RFU CD79A (11719716_a_at) / Fold change /veh CD79A (11719716_a_at) / RFU HIST1H1D (11736915_at) / Fold change /veh HIST1H1D (11736915_at) / RFU CASKIN2 (11723855_a_at) / Fold change /veh CASKIN2 (11723855_a_at) / RFU LOC730098 (11760151_x_at) / Fold change /veh LOC730098 (11760151_x_at) / RFU OR4N2 (11742367_at) / Fold change /veh OR4N2 (11742367_at) / RFU PRRT2 (11749266_a_at) / Fold change /veh PRRT2 (11749266_a_at) / RFU SNX32 (11753110_a_at) / Fold change /veh SNX32 (11753110_a_at) / RFU CDHR5 (11726645_a_at) / Fold change /veh CDHR5 (11726645_a_at) / RFU RCAN1 (11760418_a_at) / Fold change /veh RCAN1 (11760418_a_at) / RFU FAM167A (11723789_a_at) / Fold change /veh FAM167A (11723789_a_at) / RFU FAM26E (11764081_at) / Fold change /veh FAM26E (11764081_at) / RFU ISYNA1 (11749810_s_at) / Fold change /veh ISYNA1 (11749810_s_at) / RFU ACY1 (11761880_at) / Fold change /veh ACY1 (11761880_at) / RFU 11764098_at / Fold change /veh 11764098_at / RFU SAMD14 (11745864_x_at) / Fold change /veh SAMD14 (11745864_x_at) / RFU NPB (11741838_a_at) / Fold change /veh NPB (11741838_a_at) / RFU TMPRSS6 (11731388_a_at) / Fold change /veh TMPRSS6 (11731388_a_at) / RFU KRTAP10-2 (11738614_at) / Fold change /veh KRTAP10-2 (11738614_at) / RFU ARHGAP8 /// PRR5-ARHGAP8 (11727945_x_at) / Fold change /veh ARHGAP8 /// PRR5-ARHGAP8 (11727945_x_at) / RFU KRTAP5-7 /// NADSYN1 (11734609_at) / Fold change /veh KRTAP5-7 /// NADSYN1 (11734609_at) / RFU RASL12 (11751679_a_at) / Fold change /veh RASL12 (11751679_a_at) / RFU CDKN2B (11736163_a_at) / Fold change /veh CDKN2B (11736163_a_at) / RFU PRF1 (11729649_at) / Fold change /veh PRF1 (11729649_at) / RFU, ZNF638 /// ZNF638-IT1 / Fold change vs veh, ZNF638 /// ZNF638-IT1 / RFU, PANK3 / Fold change vs veh, PANK3 / RFU, SH3YL1 / Fold change vs veh, SH3YL1 / RFU, ZEB2 / Fold change vs veh, ZEB2 / RFU, NRIP1 / Fold change vs veh, NRIP1 / RFU, PTTG1IP / Fold change vs veh, PTTG1IP / RFU, CAPN2 / Fold change vs veh, CAPN2 / RFU, MED14 / Fold change vs veh, MED14 / RFU, SNORA58 / Fold change vs veh, SNORA58 / RFU, C1orf63 / Fold change vs veh, C1orf63 / RFU, LRRFIP1 / Fold change vs veh, LRRFIP1 / RFU, NDUFAF7 / Fold change vs veh, NDUFAF7 / RFU, SLC12A2 / Fold change vs veh, SLC12A2 / RFU, IBTK / Fold change vs veh, IBTK / RFU, ESF1 / Fold change vs veh, ESF1 / Fold change vs veh, TMEM50B / RFU, TAOK1 / Fold change vs veh, TAOK1 / RFU, ACBD3 / Fold change vs veh, ACBD3 / RFU, TMA16 / Fold change vs veh, TMA16 / RFU, RWDD3 / Fold change vs veh, RWDD3 / RFU, BCAT1 / Fold change vs veh, BCAT1 / RFU, EDEM3 / Fold change vs veh, EDEM3 / RFU, TMEM33 / Fold change vs veh, TMEM33 / RFU, WDR75 / Fold change vs veh, WDR75 / RFU, AHCTF1 / Fold change vs veh, AHCTF1 / RFU, TFRC / Fold change vs veh, TFRC / RFU, ZDHHC17 / Fold change vs veh, ZDHHC17 / RFU, NOM1 / Fold change vs veh, NOM1 / RFU, ARL8B / Fold change vs veh, ARL8B / RFU, ZBTB11 / Fold change vs veh, ZBTB11 / RFU, TAMM41 / Fold change vs veh, TAMM41 / RFU, KIAA1704 /// LOC100996395 / Fold change vs veh, KIAA1704 /// LOC100996395 / RFU, ING1 / Fold change vs veh, ING1 / RFU, TRMT61B / Fold change vs veh, TRMT61B / RFU, FUBP3 / Fold change vs veh, FUBP3 / RFU, TP53 / Fold change vs veh, TP53 / RFU, TNKS2 / Fold change vs veh, TNKS2 / RFU, ZFP14 / Fold change vs veh, ZFP14 / RFU, ACTR2 / Fold change vs veh, ACTR2 / RFU, PPP3R1 / Fold change vs veh, PPP3R1 / RFU, PIK3R1 / Fold change vs veh, PIK3R1 / RFU, HNRNPA1 / Fold change vs veh, HNRNPA1 / RFU, RNF170 / Fold change vs veh, RNF170 / RFU, ZNF28 / Fold change vs veh, ZNF28 / RFU, RNGTT / Fold change vs veh, RNGTT / RFU, OGT / Fold change vs veh, OGT / RFU, BRD1 / Fold change vs veh, BRD1 / RFU, MARS / Fold change vs veh, MARS / RFU, ZNF655 / Fold change vs veh, ZNF655 / RFU, FAHD1 / Fold change vs veh, FAHD1 / RFU, BDP1 / Fold change vs veh, BDP1 / RFU, LRRCC1 / Fold change vs veh, LRRCC1 / RFU, ARID1A / Fold change vs veh, ARID1A / RFU, ZNF146 / Fold change vs veh, ZNF146 / RFU, ZNF330 / Fold change vs veh, ZNF330 / RFU, GPN3 / Fold change vs veh, GPN3 / RFU, C9orf123 / Fold change vs veh, C9orf123 / RFU, N4BP2L2 / Fold change vs veh, N4BP2L2 / RFU, ARFIP1 / Fold change vs veh, ARFIP1 / RFU, FAM179B / Fold change vs veh, FAM179B / RFU, BCL10 / Fold change vs veh, BCL10 / RFU, UHRF1BP1L / Fold change vs veh, UHRF1BP1L / RFU, BET1 / Fold change vs veh, BET1 / RFU, CNOT2 / Fold change vs veh, CNOT2 / RFU, ZNF268 / Fold change vs veh, ZNF268 / Fold change vs veh, ZNF507 / RFU, DGCR2 / Fold change vs veh, DGCR2 / RFU, WDSUB1 / Fold change vs veh, WDSUB1 / Fold change vs veh, HSP90B1 /// MIR3652 / RFU, ADSS / Fold change vs veh, ADSS / RFU, GK / Fold change vs veh, GK / RFU, ZNF148 / Fold change vs veh, ZNF148 / RFU, TAF9 / Fold change vs veh, TAF9 / RFU, SLC1A5 / Fold change vs veh, SLC1A5 / RFU, SLMO2 / Fold change vs veh, SLMO2 / RFU, ABCC4 / Fold change vs veh, ABCC4 / RFU, LOC101060439 /// RAP1B / Fold change vs veh, LOC101060439 /// RAP1B / RFU, RFX7 / Fold change vs veh, RFX7 / RFU, GTPBP10 / Fold change vs veh, GTPBP10 / RFU, CNEP1R1 / Fold change vs veh, CNEP1R1 / RFU, BIVM-ERCC5 /// ERCC5 / Fold change vs veh, BIVM-ERCC5 /// ERCC5 / RFU, ILF3 / Fold change vs veh, ILF3 / RFU 11762660_at / Fold change /veh 11762660_at / RFU VCAN (11757783_s_at) / Fold change /veh VCAN (11757783_s_at) / RFU DDX43 (11728927_at) / Fold change /veh DDX43 (11728927_at) / RFU KRT8 (11758188_x_at) / Fold change /veh KRT8 (11758188_x_at) / RFU NKD1 (11759106_at) / Fold change /veh NKD1 (11759106_at) / RFU SRD5A1 (11742802_a_at) / Fold change /veh SRD5A1 (11742802_a_at) / RFU TPSAB1 /// TPSB2 (11721975_s_at) / Fold change /veh TPSAB1 /// TPSB2 (11721975_s_at) / RFU GSTM3 (11746129_a_at) / Fold change /veh GSTM3 (11746129_a_at) / RFU IL23R (11737362_x_at) / Fold change /veh IL23R (11737362_x_at) / RFU TMEM51 (11727254_a_at) / Fold change /veh TMEM51 (11727254_a_at) / RFU PIWIL2 (11732686_x_at) / Fold change /veh PIWIL2 (11732686_x_at) / RFU ORM1 (11744905_x_at) / Fold change /veh ORM1 (11744905_x_at) / RFU CCDC152 (11743942_at) / Fold change /veh CCDC152 (11743942_at) / RFU ECM1 (11717891_a_at) / Fold change /veh ECM1 (11717891_a_at) / RFU IL23R (11748794_a_at) / Fold change /veh IL23R (11748794_a_at) / RFU TNFAIP8L3 (11732012_x_at) / Fold change /veh TNFAIP8L3 (11732012_x_at) / RFU MBOAT4 (11741988_at) / Fold change /veh MBOAT4 (11741988_at) / RFU 11764193_at / Fold change /veh 11764193_at / RFU TMEM53 (11763286_at) / Fold change /veh TMEM53 (11763286_at) / RFU MAGEB2 (11727129_at) / Fold change /veh MAGEB2 (11727129_at) / RFU TMEM200A (11744735_a_at) / Fold change /veh TMEM200A (11744735_a_at) / RFU CCDC152 (11751479_a_at) / Fold change /veh CCDC152 (11751479_a_at) / RFU FAM211A (11726209_a_at) / Fold change /veh FAM211A (11726209_a_at) / RFU RGS16 (11746705_a_at) / Fold change /veh RGS16 (11746705_a_at) / RFU VCAN (11755009_s_at) / Fold change /veh VCAN (11755009_s_at) / RFU RHOB (11743442_s_at) / Fold change /veh RHOB (11743442_s_at) / RFU RGS16 (11720943_a_at) / Fold change /veh RGS16 (11720943_a_at) / RFU RGS16 (11720944_at) / Fold change /veh RGS16 (11720944_at) / RFU, VPS4B / Fold change vs veh, VPS4B / RFU, CREB1 / Fold change vs veh, CREB1 / RFU, DNAJC13 / Fold change vs veh, DNAJC13 / RFU, GNAQ / Fold change vs veh, GNAQ / RFU, CDK5R1 / Fold change vs veh, CDK5R1 / RFU, ZRANB3 / Fold change vs veh, ZRANB3 / RFU, CUL4A / Fold change vs veh, CUL4A / RFU, CCNY / Fold change vs veh, CCNY / RFU, UFL1 / Fold change vs veh, UFL1 / RFU, COG3 / Fold change vs veh, COG3 / RFU, DIAPH2 / Fold change vs veh, DIAPH2 / RFU, SKA2 / Fold change vs veh, SKA2 / RFU, AFF3 / Fold change vs veh, AFF3 / RFU, LMF1 / Fold change vs veh, LMF1 / RFU, IPO11 / Fold change vs veh, IPO11 / RFU, DFFB / Fold change vs veh, DFFB / RFU, FOXP1 / Fold change vs veh, FOXP1 / RFU, CARD8 / Fold change vs veh, CARD8 / RFU, STRN3 / Fold change vs veh, STRN3 / RFU, ADK / Fold change vs veh, ADK / RFU, RASSF2 / Fold change vs veh, RASSF2 / RFU, WIPF1 / Fold change vs veh, WIPF1 / RFU, LARP1B / Fold change vs veh, LARP1B / RFU, RASA1 / Fold change vs veh, RASA1 / RFU, RB1 / Fold change vs veh, RB1 / RFU, PPFIA1 / Fold change vs veh, PPFIA1 / RFU, MAT2A / Fold change vs veh, MAT2A / RFU, CCT5 / Fold change vs veh, CCT5 / RFU, WDR92 / Fold change vs veh, WDR92 / RFU, CUX1 / Fold change vs veh, CUX1 / RFU, TTC7A / Fold change vs veh, TTC7A / RFU, TMEM135 / Fold change vs veh, TMEM135 / RFU, DEPTOR / Fold change vs veh, DEPTOR / RFU, CPM / Fold change vs veh, CPM / RFU, DNAJB6 / Fold change vs veh, DNAJB6 / RFU, CACNA2D3 / Fold change vs veh, CACNA2D3 / RFU, DTX4 / Fold change vs veh, DTX4 / RFU, TFCP2 / Fold change vs veh, TFCP2 / RFU, GMCL1 /// GMCL1P1 / Fold change vs veh, GMCL1 /// GMCL1P1 / RFU, AEBP2 / Fold change vs veh, AEBP2 / RFU, SNHG1 /// SNORD22 /// SNORD25 /// SNORD26 /// SNORD27 /// SNORD28 /// SNORD29 /// SNORD31 / Fold change vs veh, SNHG1 /// SNORD22 /// SNORD25 /// SNORD26 /// SNORD27 /// SNORD28 /// SNORD29 /// SNORD31 / Fold change (Aza/veh), C12orf56 (ProbeSet 11735607_a_at) / Fold change (ACY-1035/veh), C12orf56 (ProbeSet 11735607_a_at) / Fold change (Aza/veh), FGFR1OP (ProbeSet 11751329_s_at) / Fold change (ACY-1035/veh), FGFR1OP (ProbeSet 11751329_s_at) / Fold change (Aza/veh), VPS36 (ProbeSet 11739960_a_at) / Fold change (ACY-1035/veh), VPS36 (ProbeSet 11739960_a_at) / RFU SYPL1 (11715823_x_at) / Fold change /veh SYPL1 (11715823_x_at) / RFU IGFBP7 (11715501_s_at) / Fold change /veh IGFBP7 (11715501_s_at) / RFU REEP3 (11722064_at) / Fold change /veh REEP3 (11722064_at) / RFU IGLL1 (11728026_x_at) / Fold change /veh IGLL1 (11728026_x_at): dose or concentration left out as unconfirmed
# Conditions: ProbeSet 11721611_a_at; LIST D
compound,measurement,value
Nc1ncn([C@@H]2O[C@H](CO)[C@@H](O)[C@H]2O)c(=O)n1 [azacitidine],"RFU, IPO11",64.89 RFU
